In patent publication US20180346446A1, “IRE1 SMALL MOLECULE INHIBITORS” (QUENTIS THERAPEUTICS, INC., priority 2017, published 2018):

Assays:
IRE1a [1] = target: T1, IRE1a (Homo sapiens, UniProt O75460); assay: In vitro FRET assay (XBP1 RNA probe cleavage by IRE1a); assay type: biochemical; parameters: purchased SignalChem; conditions: 2 nM IRE1a protein
293T cells = assay: Growth assay (cytotoxicity); assay type: cell-based; conditions: 2 day incubation
Description: A growth assay was performed to evaluate the compounds disclosed herein for cytotoxicity. Briefly, 5,000,000 293T cells were resuspended in 18 mL of cDMEM for a final concentration of 277,777 cells/mL. […] In a separate 96 well dilution plate, 199 uL cDMEM and 1 uL of DMSO or any one of the compounds disclosed herein (shown as Test Compound 1, 2, 3, 4, 5, or 6 below) were added to wells A4, A8, C4, C8, E4, E8, G4, and G8. 133.3 uL cDMEM was added to wells 1, 2, 3, 5, 6, and 7 in rows A, C, E and G of the dilution plate. Compounds were serially diluted leftwards in threefold dilutions (66.7 uL into 133.3 uL cDMEM). 20 uL of each dilution was transferred in duplicate (duplicates in vertical paired wells) to the cells plated in the 96-well plate shown in Table 5, to the total concentrations shown below. 200 uL cDMEM was added to media wells (wells G5-H8). The plate was then placed in a humidified chamber for a 2 day incubation, and then photographed (media was more yellow in wells with potent cell growth). Absorbance was then measured at about […] (lower for more acidic media) and about […] (higher for more acidic media).

hERG channel = target: T2, hERG channel (Homo sapiens, UniProt Q12809); assay: hERG potassium ion channel automated planar clamp (QPatch); assay type: cell-based; conditions: hERG channel expressed in a stable CHO cell line, read-out: hERG channel blockade Mean IC50
T2 construct: expressed in transfected cells
T2 sequence (Q12809 whole entry): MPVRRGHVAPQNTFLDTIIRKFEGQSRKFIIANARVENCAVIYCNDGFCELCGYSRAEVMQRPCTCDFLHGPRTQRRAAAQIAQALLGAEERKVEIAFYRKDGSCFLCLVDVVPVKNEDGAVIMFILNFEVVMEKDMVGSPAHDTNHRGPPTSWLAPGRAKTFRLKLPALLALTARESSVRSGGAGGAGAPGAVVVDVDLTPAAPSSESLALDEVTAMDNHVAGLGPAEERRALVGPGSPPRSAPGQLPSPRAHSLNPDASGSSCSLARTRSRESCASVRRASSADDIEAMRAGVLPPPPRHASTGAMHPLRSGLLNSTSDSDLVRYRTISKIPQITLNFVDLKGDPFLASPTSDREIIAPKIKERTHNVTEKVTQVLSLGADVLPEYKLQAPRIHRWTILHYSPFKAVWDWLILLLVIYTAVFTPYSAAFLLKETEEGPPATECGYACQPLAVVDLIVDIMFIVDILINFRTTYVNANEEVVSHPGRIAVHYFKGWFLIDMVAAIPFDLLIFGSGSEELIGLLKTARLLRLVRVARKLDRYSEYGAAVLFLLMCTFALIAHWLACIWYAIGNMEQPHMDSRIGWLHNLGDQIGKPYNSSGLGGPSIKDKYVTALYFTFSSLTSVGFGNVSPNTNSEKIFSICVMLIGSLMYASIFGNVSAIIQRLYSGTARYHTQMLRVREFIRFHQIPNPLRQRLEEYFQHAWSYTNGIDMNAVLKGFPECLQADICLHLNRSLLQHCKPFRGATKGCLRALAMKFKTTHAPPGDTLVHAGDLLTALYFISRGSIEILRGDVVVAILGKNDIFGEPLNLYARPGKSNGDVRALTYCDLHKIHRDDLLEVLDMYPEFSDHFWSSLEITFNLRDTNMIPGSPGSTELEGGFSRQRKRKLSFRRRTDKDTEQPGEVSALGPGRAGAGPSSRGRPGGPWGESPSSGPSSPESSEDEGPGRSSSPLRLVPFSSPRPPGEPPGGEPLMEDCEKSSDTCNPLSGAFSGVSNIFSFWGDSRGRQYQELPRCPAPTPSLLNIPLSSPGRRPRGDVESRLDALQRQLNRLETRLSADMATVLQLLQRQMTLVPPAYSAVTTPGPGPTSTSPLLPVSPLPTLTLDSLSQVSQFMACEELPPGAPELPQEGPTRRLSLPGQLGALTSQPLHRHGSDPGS
Description: Blockade of the cardiac ion channel coded by the hERG gene can lead to cardiac arrhythmia. […] To determine the viability of the compounds disclosed herein as pharmacological agents that would not affect the hERG channel blockade, a standard automated planar clamp method was employed to determine the IC50 for various test compounds on their inhibition of the channel. An electrophysiological assay was prepared to measure the electric current passing through the hERG channel expressed in a stable CHO cell line by applying the planar clamp method. This assay was performed using the automated QPatch platform (Sophion, Denmark) which allows fast and accurate electrophysiological characterization of the hERG ion channel and the determination of IC50 values for the test compounds, as shown in Table 9.

IRE1a [2] = target: T1, IRE1a; assay: IRE1a Endoribonuclease Nanoluciferase Assay (XBP1 luciferase reporter in 293T cells); assay type: cell-based; conditions: 293T cells transfected with XBP1 luciferase reporter, ER stressors +/- inhibitors
Summary of the method: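 293T cells were transfected with a PGK-Luc2-P2A-XBP1u-nanoluciferase-PEST reporter and plated in 96-well format. A day later they were treated with ER stressors with or without inhibitors. Lysates were read for luminescence with OneGlo, then again after Stop and Glo.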

[3] = Microsome stability assay, human liver microsomes; assay type: in vitro ADME; conditions: formic acid salt
Description: (§1) The formic acid salt of Compound 3 was tested under the microsome stability assay outlined below. Test compounds were incubated at 37° C. with liver microsomes (pooled from multiple donors) at […] in the presence of a NADPH regenerating system at 0.5 mg/ml microsomal protein. Positive controls included Testosterone (3A4 substrate), Propafenone (2D6) and Diclofenac (2C9), which were incubated with microsomes in the presence of an NADPH regenerating system. At time points (0, 5, 10, 20, 30 and 60 minutes), samples were removed and immediately mixed with cold acetonitrile containing internal standard (IS). Test compounds incubated with microsomes without the NADPH regenerating system for 60 min was also included. A single point for each test condition (n=1) was obtained, and samples were analyzed by LC/MS/MS. Disappearance of the test compound was assessed based on peak area ratios of analyte/IS (no standard curve).

[4] = test system: IRE1a-mediated XBP1 splicing; assay: Suppression of XBP1 splicing in liver of tunicamycin-injected mice; assay type: in vivo; conditions: 0.25 mg/kg tunicamycin, 10 mg/kg compound intraperitoneal, 4 hours, RT-qPCR
Description: Mice were injected with 0.25 mg/kg tunicamycin dissolved in DMSO: PBS at a ratio of 1:3. After 2 hours, the mice were injected with 10 mg/kg of Compound 3 dissolved in water or water alone as a vehicle control. After an additional 4 hours, the animals were euthanized, livers dissected out, and 2-3 mm^3 liver pieces are flash frozen on dry ice. Liver pieces were then thawed in Trizol on ice, homogenized for 3 minutes with a bead mill at medium-high speed. RNA was then extracted from the Trizol solution according to the manufacturer's recommendation. Gene expression analysis was also performed via Reverse Transcription quantitative PCR (RT-qPCR) using a Stratagene Mx3005 instrument and SYBR green I (Life Technologies). Gene expression was measured of the spliced Xbp1s transcript, a primer set measuring all Xbp1 transcripts, Xbp1s target genes including Sec24d and general ER stress response markers Hspa5 (BiP) and Ddit3 (CHOP).

[5] = test system: IRE1a-mediated XBP1 splicing; assay: Inhibition of IRE1a signaling in cell types of the tumor microenvironment (metastatic ovarian cancer mice); assay type: in vivo; conditions: mice with metastatic ovarian cancer, 11 mg/kg, 12 hours, tumor cells, DC, CD4+ and CD8+ T cells from ascites
Description: A syngeneic mouse model for metastatic, orthotopic ovarian cancer was used to analyze the in vivo effects of compounds described herein. Assay conditions were similar to those described in Example 11, administering compound 3 for comparison against controls. […] After 12 hours, the ascites were drained and FACS was used to purify the cells into four populations: tumor cells, dendritic cells (DC), CD4+ T cells, and CD8+ T cells. Then, PCR and qPCR was used to quantify spliced Xbp1 transcripts and total Xbp1 transcripts. […] Compound 3 can therefore inhibit IRE1a-mediated XBP1 splicing in vivo in tumor cells and key immune cell types found within the tumor microenvironment.

[6] = Microsome stability assay, mouse liver microsomes; assay type: in vitro ADME; conditions: formic acid salt
Description: as §1

T1 sequence (O75460 19-977): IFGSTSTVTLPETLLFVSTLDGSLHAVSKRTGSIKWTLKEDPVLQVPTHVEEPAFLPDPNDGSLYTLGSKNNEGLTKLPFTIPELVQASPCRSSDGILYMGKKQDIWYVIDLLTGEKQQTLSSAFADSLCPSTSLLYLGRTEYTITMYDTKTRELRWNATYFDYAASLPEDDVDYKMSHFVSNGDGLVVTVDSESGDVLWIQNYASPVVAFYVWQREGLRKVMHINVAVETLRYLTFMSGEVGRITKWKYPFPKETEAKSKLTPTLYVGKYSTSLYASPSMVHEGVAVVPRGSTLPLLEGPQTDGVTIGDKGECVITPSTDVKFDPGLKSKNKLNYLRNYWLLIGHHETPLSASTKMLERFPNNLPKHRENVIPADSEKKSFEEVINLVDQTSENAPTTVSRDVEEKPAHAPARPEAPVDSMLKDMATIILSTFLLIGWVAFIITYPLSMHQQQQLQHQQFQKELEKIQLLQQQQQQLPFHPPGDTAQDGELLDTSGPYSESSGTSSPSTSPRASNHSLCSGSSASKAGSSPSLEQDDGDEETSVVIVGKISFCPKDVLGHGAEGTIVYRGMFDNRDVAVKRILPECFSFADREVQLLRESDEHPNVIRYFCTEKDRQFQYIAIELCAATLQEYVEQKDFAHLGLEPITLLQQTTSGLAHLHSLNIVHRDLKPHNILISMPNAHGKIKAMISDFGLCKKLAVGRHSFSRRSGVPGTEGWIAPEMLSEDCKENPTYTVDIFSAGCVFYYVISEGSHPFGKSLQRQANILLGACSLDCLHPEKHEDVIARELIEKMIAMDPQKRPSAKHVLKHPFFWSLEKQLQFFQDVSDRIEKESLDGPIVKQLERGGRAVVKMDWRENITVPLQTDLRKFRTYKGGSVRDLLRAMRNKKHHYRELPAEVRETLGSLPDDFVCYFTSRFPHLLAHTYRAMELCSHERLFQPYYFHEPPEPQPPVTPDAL

Row | SMILES | IC50 (IRE1a [1]) | % Growth at 0.5556 uM (293T cells; 0.5556 uM) | % Growth at 1.667 uM (293T cells; 1.667 uM) | % Growth at 5 uM (293T cells; 5 uM) | IC50 (hERG channel) | EC50 (IRE1a [2]) | HLM Remaining at 60 min ([3]; 60 min) | Human CI ([3]; human liver microsomes, 37° C., NADPH regenerating system) | half-life at 1 NM ([3]; human, liver microsomes (pooled from multiple donors), 37° C., 0.5 mg/ml microsomal protein, NADPH regenerating system, read-out: Human Liver Microsome (HLM) T1/2) | suppression of IRE1a-mediated XBP1 splicing in vivo [4] | splicing ratio of XBP1 (spliced Xbp1 transcripts divided by total Xbp1 transcripts) compared to vehicle-treated mice [5] | Mouse Liver Microsome CI ([6]; 37° C., NADPH regenerating system) | Mouse Liver Microsome Remaining at 60 min ([6]; 60 min) | half-life at 1 NM ([6]; mouse, liver microsomes (pooled from multiple donors), 37° C., 0.5 mg/ml microsomal protein, NADPH regenerating system, read-out: Mouse Liver Microsome T1/2)
1 | CCc1cc(-c2ccc(NS(=O)(=O)c3ccccc3Cl)c(F)c2)cc2cnc(N[C@H]3CC[C@H](N(C)C)CC3)nc12.O=CO [69; Formic Acid] | ≤ 0.005 µM | D (D: >75% to ≤100%) | C (C: >50% to ≤75%) | C (C: >50% to ≤75%) | 10 to 50 µM | ≤ 0.005 µM |  |  |  |  |  |  |  | 
2 | CCc1cc(-c2ccc(NS(=O)(=O)c3ccccc3Cl)cc2C)cc2cnc(N[C@H]3CC[C@H](N)CC3)nc12 [Compound 3, N-(4-(2-(((1r,4r)-4-aminocyclohexyl)amino)-8-ethylquinazolin-6-yl)-3-methylphenyl)-2-chlorobenzenesulfonamide] |  |  |  |  |  |  | 44% | 29.2 µL/min/mg | 47.5 min | potently suppresses | markedly reduced | 31.9 µL/min/mg | 41% | 43.5 min
